Columns and labels:
Assay in all cases: relative viability (nuclei count vs DMSO), 5 days (fraction); higher = more cells survive
FH535 + Crizotinib = compound: CC1=C(C=CC(=C1)[N+](=O)[O-])NS(=O)(=O)C2=C(C=CC(=C2)Cl)Cl [FH535] + C[C@@H](Oc1cc(-c2cnn(C3CCNCC3)c2)cnc1N)c1c(Cl)ccc(F)c1Cl [Crizotinib] (partner 1 µM)
Outline: (§1)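 Relative viability was taken as the ratio of nuclei in treated wells to nuclei in vehicle wells. Lung cancer cell lines in 1536-well plates received compounds by pin tool one day after seeding, either one drug alone or a fixed anchor-drug dose plus five library-drug doses (not always all listed) in √10 steps. Nuclei were counted on 4× images after 5 days of treatment, and values are medians of duplicate plates.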

FH535 + Pictilisib = compound: CC1=C(C=CC(=C1)[N+](=O)[O-])NS(=O)(=O)C2=C(C=CC(=C2)Cl)Cl [FH535] + CS(=O)(=O)N1CCN(Cc2cc3nc(-c4cccc5[nH]ncc45)nc(N4CCOCC4)c3s2)CC1 [Pictilisib] (partner 1 µM)
Outline: as §1

FH535 + Alpelisib = compound: CC1=C(C=CC(=C1)[N+](=O)[O-])NS(=O)(=O)C2=C(C=CC(=C2)Cl)Cl [FH535] + Cc1nc(NC(=O)N2CCC[C@H]2C(N)=O)sc1-c1ccnc(C(C)(C)C(F)(F)F)c1 [Alpelisib] (partner 2 µM)
Outline: as §1

FH535 + Olaparib = compound: CC1=C(C=CC(=C1)[N+](=O)[O-])NS(=O)(=O)C2=C(C=CC(=C2)Cl)Cl [FH535] + O=C(c1cc(Cc2n[nH]c(=O)c3ccccc23)ccc1F)N1CCN(C(=O)C2CC2)CC1 [Olaparib] (partner 8 µM)
Outline: as §1

FH535 + Linsitinib = compound: CC1=C(C=CC(=C1)[N+](=O)[O-])NS(=O)(=O)C2=C(C=CC(=C2)Cl)Cl [FH535] + C[C@]1(O)C[C@@H](c2nc(-c3ccc4ccc(-c5ccccc5)nc4c3)c3c(N)nccn32)C1 [Linsitinib] (partner 1 µM)
Outline: as §1

FH535 + Lapatinib = compound: CC1=C(C=CC(=C1)[N+](=O)[O-])NS(=O)(=O)C2=C(C=CC(=C2)Cl)Cl [FH535] + CS(=O)(=O)CCNCc1ccc(-c2ccc3ncnc(Nc4ccc(OCc5cccc(F)c5)c(Cl)c4)c3c2)o1 [Lapatinib] (partner 2 µM)
Outline: as §1

FH535 + Bortezomib = compound: CC1=C(C=CC(=C1)[N+](=O)[O-])NS(=O)(=O)C2=C(C=CC(=C2)Cl)Cl [FH535] + CC(C)C[C@H](NC(=O)[C@H](Cc1ccccc1)NC(=O)c1cnccn1)B(O)O [Bortezomib] (partner 0.002 µM)
Outline: as §1

FH535 + Foretinib = compound: CC1=C(C=CC(=C1)[N+](=O)[O-])NS(=O)(=O)C2=C(C=CC(=C2)Cl)Cl [FH535] + COc1cc2c(Oc3ccc(NC(=O)C4(C(=O)Nc5ccc(F)cc5)CC4)cc3F)ccnc2cc1OCCCN1CCOCC1 [Foretinib] (partner 0.25 µM)
Outline: as §1

FH535 + Navitoclax = compound: CC1=C(C=CC(=C1)[N+](=O)[O-])NS(=O)(=O)C2=C(C=CC(=C2)Cl)Cl [FH535] + CC1(C)CCC(c2ccc(Cl)cc2)=C(CN2CCN(c3ccc(C(=O)NS(=O)(=O)c4ccc(N[C@H](CCN5CCOCC5)CSc5ccccc5)c(S(=O)(=O)C(F)(F)F)c4)cc3)CC2)C1 [Navitoclax] (partner 0.5 µM)
Outline: as §1

FH535 = compound: CC1=C(C=CC(=C1)[N+](=O)[O-])NS(=O)(=O)C2=C(C=CC(=C2)Cl)Cl [FH535]
Outline: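 On vehicle-anchored 1536-well plates, lung cancer cell lines held overnight at 37 °C were pinned with five library-drug doses (not always all listed) spaced by √10. With no medium change over 5 days, they were then fixed, permeabilised and Hoechst-stained in one step and imaged at 4×. MetaXpress counted nuclei, and viability is the median across plates of treated-well over vehicle-well nuclei. Acceptance needed control CV below 25% and at least one doubling.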

Row | Cell Line | relative viability (FH535 + Crizotinib; first compound 0.04 µM) | relative viability (FH535 + Crizotinib; first compound 0.1265 µM) | relative viability (FH535 + Crizotinib; first compound 0.4 µM) | relative viability (FH535 + Crizotinib; first compound 1.265 µM) | relative viability (FH535 + Pictilisib; first compound 0.04 µM) | relative viability (FH535 + Pictilisib; first compound 0.1265 µM) | relative viability (FH535 + Pictilisib; first compound 0.4 µM) | relative viability (FH535 + Pictilisib; first compound 1.265 µM) | relative viability (FH535 + Alpelisib; first compound 0.04 µM) | relative viability (FH535 + Alpelisib; first compound 0.1265 µM) | relative viability (FH535 + Alpelisib; first compound 0.4 µM) | relative viability (FH535 + Alpelisib; first compound 1.265 µM) | relative viability (FH535 + Olaparib; first compound 0.04 µM) | relative viability (FH535 + Olaparib; first compound 0.1265 µM) | relative viability (FH535 + Olaparib; first compound 0.4 µM) | relative viability (FH535 + Olaparib; first compound 1.265 µM) | relative viability (FH535 + Linsitinib; first compound 0.04 µM) | relative viability (FH535 + Linsitinib; first compound 0.1265 µM) | relative viability (FH535 + Linsitinib; first compound 0.4 µM) | relative viability (FH535 + Linsitinib; first compound 1.265 µM) | relative viability (FH535 + Lapatinib; first compound 0.04 µM) | relative viability (FH535 + Lapatinib; first compound 0.1265 µM) | relative viability (FH535 + Lapatinib; first compound 0.4 µM) | relative viability (FH535 + Lapatinib; first compound 1.265 µM) | relative viability (FH535 + Bortezomib; first compound 0.04 µM) | relative viability (FH535 + Bortezomib; first compound 0.1265 µM) | relative viability (FH535 + Bortezomib; first compound 0.4 µM) | relative viability (FH535 + Bortezomib; first compound 1.265 µM) | relative viability (FH535 + Foretinib; first compound 0.04 µM) | relative viability (FH535 + Foretinib; first compound 0.1265 µM) | relative viability (FH535 + Foretinib; first compound 0.4 µM) | relative viability (FH535 + Foretinib; first compound 1.265 µM) | relative viability (FH535 + Navitoclax; first compound 0.04 µM) | relative viability (FH535 + Navitoclax; first compound 0.1265 µM) | relative viability (FH535 + Navitoclax; first compound 0.4 µM) | relative viability (FH535 + Navitoclax; first compound 1.265 µM) | relative viability (FH535; 0.04 µM) | relative viability (FH535; 0.1265 µM) | relative viability (FH535; 0.4 µM) | relative viability (FH535; 1.265 µM)
1 | Calu-6 | 0.797 | 0.814 | 0.783 | 0.601 | 1.02 | 0.911 | 0.848 | 0.748 | 1.07 | 0.982 | 0.866 | 0.87 | 0.583 | 0.594 | 0.532 | 0.507 | 0.972 | 1.04 | 1 | 0.814 | 1.12 | 1.14 | 1 | 0.76 | 0.908 | 1.03 | 0.997 | 0.772 | 0.815 | 0.83 | 0.877 | 0.777 | 0.912 | 0.849 | 0.772 | 0.547 | 0.938 | 1.05 | 0.956 | 0.792
2 | EBC-1 | 0.178 | 0.182 | 0.192 | 0.178 | 0.44 | 0.289 | 0.402 | 0.383 | 0.737 | 0.82 | 0.868 | 0.816 | 0.675 | 0.657 | 0.712 | 0.566 | 0.854 | 0.899 | 0.91 | 0.646 | 0.237 | 0.209 | 0.196 | 0.151 | 0.622 | 0.638 | 0.585 | 0.449 | 0.114 |  | 0.0911 | 0.101 | 0.364 | 0.391 | 0.491 | 0.416 | 0.924 | 0.983 | 0.989 | 0.815
3 | NCI-H1299 | 1 | 0.932 | 0.966 | 0.876 | 0.736 | 0.8 | 0.772 | 0.712 | 1.05 | 0.983 | 1.05 | 1.07 | 1.01 | 1.03 | 0.973 | 0.777 | 0.98 | 0.978 | 0.957 | 0.927 | 0.979 | 0.947 | 0.963 | 0.76 | 1.03 | 1.03 | 1.07 | 0.809 | 1.12 | 1.07 | 1.12 | 1.03 | 1.04 | 1.07 | 1.08 | 0.954 | 1.01 | 1.01 | 1.02 | 0.932

— the supplement of paper PMC10307832
